# Tests used:
# M109 and L1210 tumors = experiment: whole-tissue fluorescence imaging of tumors vs adjacent normal tissue after iv injection; format: in vivo, mouse; settings: M109 (Balb/c) and L1210 (DBA) tumors, 2 h after iv injection, argon laser 488 nm
# Protocol: Whole-tissue fluorescent imaging is performed using the imaging system 110 shown in FIG. 2 including an argon laser 12 (Spectra-Physics, Mountain View, Calif.) operating at 488 nm with a total laser power of 200 mW reaching the 2 cm sample field of view 114. Fluorescence is detected by a colored CCD camera 116 such as a JAI CV-53200N manufactured by Edmund Industrial Optics, Barrington, N.J. with a sensing area of 768×494 pixels and a pixel size of […]. An f/5.6 152-457 mm 10× CCD zoom lens 118, also produced by Edmund Industrial Optics, Barrington, N.J., is used to collect fluorescence from the 2.0 cm×2.0 cm field of view 114. A band pass filter 120 with […] 80% T at 515-585 nm (Inter, Inc., Socorro, N.M.) is placed between the lens 118 and the CCD Camera 116 in order to reject laser light 20 and suppress tissue auto-fluorescence outside the fluorescein fluorescence band. The images are digitally acquired using SNAPPY software v. 4.0 manufactured by Play, Inc., Sacramento, Calif.
# The light 20 of laser 12 is aimed via a plurality of mirrors 26 such that the light 20 passes through a diffusing lens 124 to illuminate the field of view 114 as shown in FIG. 2. […]
# In fact, the differences in fluorescence intensity were readily apparent to the naked eye without the assistance of optical equipment as shown in the upper pictures of FIGS. 5a-c. […]
# M109 tumor nodules = experiment: imaging of metastatic tumor nodules of M109 cell origin (ip or iv inoculation); format: in vivo, mouse
# From the text: In order to test the ability of folate-fluorescein to facilitate detection of microscopic tumor nodules, metastatic tumors of M109 cell origin were induced by inoculation of cells either into the peritoneal cavity (ip) or femoral vein (iv) of the syngeneic mice. After allowing sufficient time for tumor growth, tumor loci were again imaged by intravenous administration of folate-fluorescein followed by laser excitation.
# L1210 tumor nodules = experiment: imaging of metastatic L1210 lesions after iv inoculation; format: in vivo, mouse
# From the text: To further explore the ability of folate-fluorescein to image small metastatic lesions, L1210 cells were also inoculated intravenously into syngeneic mice and the various anatomical regions were again imaged as above. Since L1210 cells are lymphocytic in origin and relatively small in size, they are capable of forming tumor nodules throughout the body after iv injection, rather than becoming entrapped primarily in the lung capillary network. […] Further, the animal's spleen was almost entirely filled with minute tumor loci (FIG. 9a) and was consequently enlarged to roughly twice its normal size. Tumor nodules were also found in muscle tissue near the shoulder (FIG. 9b) and in the brain, spinal cord, and along the pleura.
# [1] = system: arthritic joints (folate receptor expressing macrophages); settings: rat paws
# From the text: Targeting a photosensitizer to arthritic joints allow phototherapy to be applied to the arthritic joint while preventing toxicity to other tissues. […] One potential application of arthritis imaging is in the area of sport animal medicine. Race animals, such as dogs or horses, that have arthritis, could be diagnosed in an easy, inexpensive, and nonradioactive manner by using fluorescent imaging agents.
# [2] = system: folate receptor-expressing tumor tissue
# Protocol: Tumors are induced subcutaneously by injecting 100 μL of cell culture solution containing approximately 500,000 M109 or L1210 cells. Imaging of mice with subcutaneous tumors is performed when the tumors reach approximately 200 mm^3 in size. For intraperitoneal (i.p.) tumors, approximately 500,000 M109 or L1210 cells are implanted in the peritoneal cavity and allowed to proliferate for approximately 2 weeks prior to analysis, which is sufficient time for tumor masses greater than 1 mm^3 to appear. Metastatic tumors are initiated by injection of approximately 200,000 M109 or L1210 cells into the femoral vein, and the imaging is performed two weeks afterwards in a variety of tissues.
# In this case, the laser 12 is used to illuminate a 5 mm diameter area of a sample placed on an OLYMPUS BH-2 microscope 14 stage (Olympus, Inc., Melville, N.Y.). […] The fluorescence spectra are acquired using KESTREL Spec software (Princeton Instruments, Trenton, N.J.) with an integration time of 5 s, and fluorescence wavelengths are calibrated against neon lamp calibration lines.
# Once again, light 28 from an argon laser 12 is directed via mirrors 26 so as to illuminate tissue on a stage 32 of microscope 14. Any fluorescence is captured by camera 34 via filter 35, similar to filter 120, and by the spectrograph 22. […]
substance,measurement,setting,value
folate-γ-fluorescein [folate-fluorescein],fluorescence of tumors compared with adjacent normal tissues,M109 and L1210 tumors,significantly more fluorescent than adjacent normal tissues
same,fluorescence of tumor metastases compared to adjacent nonmalignant tissue,"M109 tumor nodules; intravenously inoculated mice, lungs",all tumor metastases fluoresced intensely
same,size of metastatic tumor nodules readily observable,"M109 tumor nodules; lungs of intravenously inoculated mice, iv conjugate, laser excitation",smaller than 0.5 mm
same,fluorescence of L1210 tumor nodules throughout the body,"L1210 tumor nodules; most tissues of the body, laser illumination",no nodules were identified that did not fluoresce
same,detection of microscopic L1210 nodules in liver under laser illumination,L1210 tumor nodules; under and top surface of the liver,clearly revealed under laser illumination
same,contrast between arthritic and non-arthritic tissues,[1],discernable contrast
same,"fluorescence intensity of liver and muscle tissues, injected vs noninjected mice",[2]; liver and muscle tissues not expressing the folate receptor,no difference in fluorescence intensity
same,fluorescence of tumor tissue from injected mice relative to autofluorescence of noninjected controls,"[2]; tumor tissue, 2 h after injection of 8.7 μg, laser excitation",approximately fivefold

# Reference: patent US8858914B2 (Endocyte, Inc., priority 2002, dated 2014)
